Experimental data as given in PubChem BioAssay AID248 (DTP/NCI, 2004).
Where “and” joins values, the source holds several entries; their conditions need not be identical. Identical values can stand only once. Toxic doses and inconclusive results are not listed. Cut-off read from the data, not from the text of the source: active = T/C of 150% or more; inactive = T/C below 125%.

Tested on: L1210 leukemia ip in BDF1 mice, survival T/C
Experiment: NCI In Vivo Anticancer Drug Screen. Data for tumor model L1210 Leukemia (intraperitoneal) in B6D2F1 (BDF1) mice
Conditions: endpoint: mean survival time, higher = longer survival
In short: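 Tumor cells were implanted, animals were treated, and survival was followed. The result divides the treated measurement by the vehicle-control measurement.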

[1] = dose: 100.0 mg/kg/injection, schedule: Q01DX001 (ip), vehicle: saline
[2] = dose: 200.0 mg/kg/injection, schedule: Q01DX001 (ip), vehicle: saline
[3] = dose: 400.0 mg/kg/injection, schedule: Q01DX001 (ip), vehicle: saline
[4] = dose: 100.0 mg/kg/injection, schedule: Q04DX003 (ip), vehicle: saline with Tween-80
[5] = dose: 200.0 mg/kg/injection, schedule: Q04DX003 (ip), vehicle: saline with Tween-80
[6] = dose: 400.0 mg/kg/injection, schedule: Q04DX003 (ip), vehicle: saline with Tween-80
[7] = dose: 100.0 mg/kg/injection, schedule: Q04DX003 (ip), vehicle: Klucel (hydroxypropylcellulose) (HPC)
[8] = dose: 200.0 mg/kg/injection, schedule: Q04DX003 (ip), vehicle: Klucel (hydroxypropylcellulose) (HPC)
[9] = dose: 400.0 mg/kg/injection, schedule: Q04DX003 (ip), vehicle: Klucel (hydroxypropylcellulose) (HPC)
[10] = dose: 100.0 mg/kg/injection, schedule: Q04DX003 (ip), vehicle: saline
[11] = dose: 200.0 mg/kg/injection, schedule: Q04DX003 (ip), vehicle: saline
[12] = dose: 50.0 mg/kg/injection, schedule: Q01DX009 (ip), vehicle: saline
[13] = dose: 100.0 mg/kg/injection, schedule: Q01DX009 (ip), vehicle: saline
[14] = dose: 200.0 mg/kg/injection, schedule: Q01DX009 (ip), vehicle: saline
[15] = dose: 100.0 mg/kg/injection, schedule: Q01DX001 (ip), vehicle: other
[16] = dose: 200.0 mg/kg/injection, schedule: Q01DX001 (ip), vehicle: other
[17] = dose: 400.0 mg/kg/injection, schedule: Q01DX001 (ip), vehicle: other
[18] = dose: 100.0 mg/kg/injection, schedule: Q04DX002 (ip), vehicle: Klucel (hydroxypropylcellulose) (HPC)
[19] = dose: 200.0 mg/kg/injection, schedule: Q04DX002 (ip), vehicle: Klucel (hydroxypropylcellulose) (HPC)
[20] = dose: 400.0 mg/kg/injection, schedule: Q04DX002 (ip), vehicle: Klucel (hydroxypropylcellulose) (HPC)
[21] = dose: 100.0 mg/kg/injection, schedule: Q01DX001 (ip), vehicle: carboxymethylcellulose (CMC)
[22] = dose: 200.0 mg/kg/injection, schedule: Q01DX001 (ip), vehicle: carboxymethylcellulose (CMC)

Measured: T/C

CC(=O)Nc1nc[nH]c1C(N)=O
inactive: dose: 100.0 mg/kg/injection, schedule: Q01DX001 (ip), vehicle: saline with Tween-80 106 % of control | dose: 200.0 mg/kg/injection, schedule: Q01DX001 (ip), vehicle: saline with Tween-80 105 % of control | dose: 400.0 mg/kg/injection, schedule: Q01DX001 (ip), vehicle: saline with Tween-80 100 % of control

CCOC(=O)C(Cc1c[nH]c2ccccc12)(NC(C)=O)C(=O)OCC
inactive: dose: 100.0 mg/kg/injection, schedule: Q01DX009 (ip), vehicle: saline with Tween-80 88 % of control | dose: 200.0 mg/kg/injection, schedule: Q01DX009 (ip), vehicle: saline with Tween-80 90 % of control | dose: 400.0 mg/kg/injection, schedule: Q01DX009 (ip), vehicle: saline with Tween-80 94 % of control

CC(C)(C)CC(C)(C)N(CSc1ccc(Br)cc1)CSc1ccc(Br)cc1
inactive: [1] 89 % of control | [2] 90 % of control | [3] 93 % of control

CCCCN(CCCC)C(=O)NS(=O)(=O)c1ccc(N)cc1
inactive: [4] 95 % of control | [5] 104 % of control | [6] 101 % of control

O=C1OC2C3c4ccccc4C(c4c3ccc3ccccc43)C2O1 (centres undefined)
inactive: [7] 103 % of control | [8] 95 % of control | [9] 95 % of control

C=CCNC(=S)Nc1cccc(C(F)(F)F)c1
inactive: dose: 50.0 mg/kg/injection, schedule: Q01DX001 (sc), vehicle: carboxymethylcellulose (CMC) 104 % of control | dose: 100.0 mg/kg/injection, schedule: Q01DX001 (sc), vehicle: carboxymethylcellulose (CMC) 101 % of control | dose: 200.0 mg/kg/injection, schedule: Q01DX001 (sc), vehicle: carboxymethylcellulose (CMC) 104 % of control | dose: 400.0 mg/kg/injection, schedule: Q01DX001 (sc), vehicle: carboxymethylcellulose (CMC) 114 % of control

CCC(Cl)COP(=O)(OCC(Cl)CC)C(CC)P(=O)(OCC(Cl)CC)OCC(Cl)CC (centres undefined)
inactive: [10] 91 % of control | [11] 95 % of control | dose: 400.0 mg/kg/injection, schedule: Q04DX003 (ip), vehicle: saline 93 % of control

Cc1cc([N+](=O)[O-])c(Cl)cc1N
inactive: dose: 100.0 mg/kg/injection, schedule: Q04DX003 (ip), vehicle: gum acacia 93 % of control | dose: 200.0 mg/kg/injection, schedule: Q04DX003 (ip), vehicle: gum acacia 95 % of control | dose: 400.0 mg/kg/injection, schedule: Q04DX003 (ip), vehicle: gum acacia 95 % of control

SC1(S)CC(c2ccc(Cl)cc2)NC(c2ccc(Cl)cc2)C1 (centres undefined)
inactive: [12] 100 % of control | [13] 93 % of control and 102 % of control | [10] 98 % of control | [14] 93 % of control and 103 % of control | [11] 89 % of control

CCOC(=O)c1cnc(=O)[nH]c1Nc1ccccc1Cl
inactive: [7] 94 % of control | [8] 101 % of control | [9] 90 % of control

O=P(O)(O)/C=C/c1ccccc1
inactive: [1] 97 % of control | [7] 90 % of control | [2] 91 % of control | [8] 98 % of control | [3] 98 % of control

Nc1ncnc(N)c1NC(=O)COc1ccc([N+](=O)[O-])cc1
inactive: dose: 100.0 mg/kg/injection, schedule: Q01DX001 (ip), vehicle: Klucel (hydroxypropylcellulose) (HPC) 102 % of control | dose: 200.0 mg/kg/injection, schedule: Q01DX001 (ip), vehicle: Klucel (hydroxypropylcellulose) (HPC) 94 % of control | dose: 400.0 mg/kg/injection, schedule: Q01DX001 (ip), vehicle: Klucel (hydroxypropylcellulose) (HPC) 100 % of control

CCOC(=O)c1cc2cc(CC)ccc2[nH]1
inactive: [15] 102 % of control | [16] 95 % of control | [17] 95 % of control

COc1ccc(C(=O)/C=C/c2ccc(Cl)cc2)cc1
inactive: [7] 100 % of control | [8] 95 % of control | [9] 92 % of control

O=C(C(=O)c1ccco1)c1ccccc1
inactive: dose: 75.0 mg/kg/injection, schedule: Q01DX001 (ip), vehicle: carboxymethylcellulose (CMC) 100 % of control | dose: 150.0 mg/kg/injection, schedule: Q01DX001 (ip), vehicle: carboxymethylcellulose (CMC) 102 % of control | dose: 300.0 mg/kg/injection, schedule: Q01DX001 (ip), vehicle: carboxymethylcellulose (CMC) 97 % of control

CNP1(N(C)C)=NP(NC)(N(C)C)=NP(NC)(N(C)C)=N1 (centres undefined)
inactive: [12] 102 % of control | [13] 100 % of control | [14] 94 % of control

Cc1cc(C(C)(C)c2ccc(O)c(C)c2)ccc1O
inactive: [12] 97 % of control | [13] 97 % of control | [4] 100 % of control | [14] 94 % of control | [5] 102 % of control | [6] 107 % of control

CCC(Cl)(c1ccccc1)C(O)C(=O)OC(C)C (centres undefined)
inactive: [18] 106 % of control | [19] 103 % of control | [20] 106 % of control

O=C1c2cc([N+](=O)[O-])ccc2-c2cc(Br)cc(Br)c21
inactive: [21] 93 % of control | [22] 108 % of control | dose: 400.0 mg/kg/injection, schedule: Q01DX001 (ip), vehicle: carboxymethylcellulose (CMC) 98 % of control

CC(=O)OC1CC2(Cl)CC1(Cl)C(Cl)=C2Cl (centres undefined)
inactive: dose: 50.0 mg/kg/injection, schedule: Q04DX003 (ip), vehicle: saline with Tween-80 105 % of control | [15] 109 % of control | [4] 106 % of control | [16] 100 % of control | [17] 109 % of control | [6] 103 % of control

O=CN(N=O)c1ccc(Br)cc1
inactive: dose: 75.0 mg/kg/injection, schedule: Q01DX001 (ip), vehicle: other 96 % of control | dose: 150.0 mg/kg/injection, schedule: Q01DX001 (ip), vehicle: other 101 % of control | dose: 300.0 mg/kg/injection, schedule: Q01DX001 (ip), vehicle: other 103 % of control

NC(=O)c1ccccc1OC(=O)Nc1ccc(F)cc1
inactive: dose: 50.0 mg/kg/injection, schedule: Q01DX001 (ip), vehicle: carboxymethylcellulose (CMC) 100 % of control | dose: 50.0 mg/kg/injection, schedule: Q01DX009 (ip), vehicle: carboxymethylcellulose (CMC) 97 % of control | [21] 103 % of control | dose: 100.0 mg/kg/injection, schedule: Q01DX009 (ip), vehicle: carboxymethylcellulose (CMC) 100 % of control and 103 % of control | dose: 100.0 mg/kg/injection, schedule: Q04DX002 (ip), vehicle: carboxymethylcellulose (CMC) 100 % of control and 109 % of control | [22] 102 % of control | dose: 200.0 mg/kg/injection, schedule: Q04DX002 (ip), vehicle: carboxymethylcellulose (CMC) 100 % of control | dose: 400.0 mg/kg/injection, schedule: Q04DX002 (ip), vehicle: carboxymethylcellulose (CMC) 86 % of control

[O-]/[N+](=C\c1ccccc1)C(c1ccccc1)c1ccccc1
inactive: dose: 75.0 mg/kg/injection, schedule: Q04DX003 (ip), vehicle: saline 97 % of control | dose: 150.0 mg/kg/injection, schedule: Q04DX003 (ip), vehicle: saline 96 % of control | dose: 300.0 mg/kg/injection, schedule: Q04DX003 (ip), vehicle: saline 89 % of control

C[n+]1ccc(/C=C/c2ccc(Cl)c(Cl)c2)c2ccccc21
inactive: dose: 12.5 mg/kg/injection, schedule: Q04DX003 (ip), vehicle: Klucel (hydroxypropylcellulose) (HPC) 98 % of control | dose: 25.0 mg/kg/injection, schedule: Q04DX003 (ip), vehicle: Klucel (hydroxypropylcellulose) (HPC) 100 % of control | dose: 50.0 mg/kg/injection, schedule: Q04DX003 (ip), vehicle: Klucel (hydroxypropylcellulose) (HPC) 96 % of control

OCCSc1ccc2ccccc2c1
inactive: dose: 100.0 mg/kg/injection, schedule: Q04DX002 (ip), vehicle: saline with Tween-80 94 % of control | dose: 200.0 mg/kg/injection, schedule: Q04DX002 (ip), vehicle: saline with Tween-80 90 % of control | dose: 400.0 mg/kg/injection, schedule: Q04DX002 (ip), vehicle: saline with Tween-80 103 % of control

C1SCSCS1
inactive: [18] 104 % of control | [19] 96 % of control | [20] 93 % of control
